Measured values reported in patent US4327210A, “Thiazolylacelamide cephalosporins” (Hoffmann-La Roche Inc., priority 1978, dated 1982).
≈ marks a conversion by molar mass, not a printed value.

Columns and labels:
Escherichia coli [1] = experiment: In vivo activity in mice infected intraperitoneally with Escherichia coli; conditions: sc, 96 h, read-out: CD50 (dose with which 50% of the test animals survive); mice infected i.p. with Escherichia coli; s.c. 1, 2 1/2 and 4 hours after infection; survival on fourth day; by interpolation
Experimental: Groups of 5 mice are infected intraperitoneally with an aqueous suspension of Escherichia coli. The test substance is administered subcutaneously in physiological common salt solution three times, i.e. 1 hour, 21/2 hours and 4 hours, after the infection. The number of surviving animals is determined on the fourth day.

Escherichia coli [2] = experiment: In vitro antimicrobial activity (minimum inhibitory concentration); format: cell-based
From the text: (§1) In vitro activity: minimum inhibitory concentration (μg/ml)

Pseudomonas aeruginosa = experiment: as above; format: cell-based
From the text: as §1

Serratia marcescens = experiment: as above; format: cell-based
From the text: as §1

Proteus mirabilis = experiment: as above; format: cell-based
From the text: as §1

Haemophilus influenzae = experiment: as above; format: cell-based
From the text: as §1

Proteus rettgeri = experiment: as above; format: cell-based; conditions: Providencia rettgeri
From the text: as §1

Klebsiella pneumoniae = experiment: as above; format: cell-based
From the text: as §1

Proteus vulgaris = experiment: as above; format: cell-based
From the text: as §1

Staphylococcus aureus = experiment: as above; format: cell-based
From the text: as §1

[3] = Pseudomonas aeruginosa strain 1
[4] = Pseudomonas aeruginosa strain 2
[5] = Pseudomonas aeruginosa strain 3
[6] = Pseudomonas aeruginosa strain 4
[7] = Pseudomonas aeruginosa strain 5
[8] = Pseudomonas aeruginosa strain 6
[9] = Pseudomonas aeruginosa strain 7
[10] = Haemophilus influenzae strain 1
[11] = Haemophilus influenzae strain 2
[12] = Haemophilus influenzae strain 3
[13] = Haemophilus influenzae strain 4
[14] = Haemophilus influenzae strain 5
[15] = Haemophilus influenzae strain 6
[16] = Haemophilus influenzae strain 7
[17] = ATCC6538, Staphylococcus aureus strain ATCC 6538
[18] = Staphylococcus aureus pencillin-resistant strain

Row | SMILES | ED50 (Escherichia coli [1]) [mg/kg] | MIC (Escherichia coli [2]; Escherichia coli strain 1) [µg/mL] | MIC (Escherichia coli [2]; Escherichia coli strain 2) [µg/mL] | MIC (Pseudomonas aeruginosa; [3]) [µg/mL] | MIC (Pseudomonas aeruginosa; [4]) [µg/mL] | MIC (Pseudomonas aeruginosa; [5]) [µg/mL] | MIC (Pseudomonas aeruginosa; [6]) [µg/mL] | MIC (Pseudomonas aeruginosa; [7]) [µg/mL] | MIC (Pseudomonas aeruginosa; [8]) [µg/mL] | MIC (Pseudomonas aeruginosa; [9]) [µg/mL] | MIC (Serratia marcescens) [µg/mL] | MIC (Proteus mirabilis; Proteus mirabilis strain 1) [µg/mL] | MIC (Proteus mirabilis; Proteus mirabilis strain 2) [µg/mL] | MIC (Haemophilus influenzae; [10]) [µg/mL] | MIC (Haemophilus influenzae; [11]) [µg/mL] | MIC (Haemophilus influenzae; [12]) [µg/mL] | MIC (Haemophilus influenzae; [13]) [µg/mL] | MIC (Haemophilus influenzae; [14]) [µg/mL] | MIC (Haemophilus influenzae; [15]) [µg/mL] | MIC (Haemophilus influenzae; [16]) [µg/mL] | also measured
1 | CO/N=C(\C(=O)N[C@@H]1C(=O)N2C(C(=O)O)=C(CSc3nc(=O)c(O)nn3C)CS[C@H]12)c1csc(N)n1 [Product A] | ≤ 0.005 | 0.02 (≈ 0.0361 µM) | 0.6 (≈ 1.08 µM) | 0.3 (≈ 0.541 µM) | 10 (≈ 18 µM) | 2.5 (≈ 4.51 µM) | 5 (≈ 9.02 µM) | 5 (≈ 9.02 µM) | 10 (≈ 18 µM) | 5 (≈ 9.02 µM) | 0.08 (≈ 0.144 µM) | ≤ 0.01 | ≤ 0.01 | 0.08 (≈ 0.144 µM) | 0.005 (≈ 0.00902 µM) | 0.005 (≈ 0.00902 µM) | 0.005 (≈ 0.00902 µM) | 0.0025 (≈ 0.00451 µM) | 0.0025 (≈ 0.00451 µM) | 0.0025 (≈ 0.00451 µM) | MIC (Proteus rettgeri): ≤ 0.01 µg/mL; MIC (Klebsiella pneumoniae): 1.2 µg/mL (≈ 2.16 µM); MIC (Proteus vulgaris): ≤ 0.01 µg/mL; MIC (Staphylococcus aureus; [17]): 2.5 µg/mL (≈ 4.51 µM); MIC (Staphylococcus aureus; [18]): 2.5 µg/mL (≈ 4.51 µM)
2 | CO/N=C(\C(=O)N[C@@H]1C(=O)N2C(C(=O)O)=C(CSc3nc(=O)c(O)nn3C)CS[C@H]12)c1csc(NC(=O)CCl)n1 [Product B, (6R,7R)-7-[2-[2-(2-Chloroacetamido)-4-thiazolyl]-2-(Z-methoxyimino)acetamido]-3-[[(2,5-dihydro-6-hydroxy-2-methyl-5-oxo-as-triazin-3-yl)thiol]methyl]-8-oxo-5-thia-1-azabicyclo[4.2.0]oct-2-ene-2-carboxylic acid] | 0.16 | 0.16 (≈ 0.254 µM) | 5 (≈ 7.92 µM) | 1.2 (≈ 1.9 µM) | > 80 | 40 (≈ 63.4 µM) | 80 (≈ 127 µM) | 80 (≈ 127 µM) | 80 (≈ 127 µM) | 80 (≈ 127 µM) | 2.5 (≈ 3.96 µM) | 0.08 (≈ 0.127 µM) | 0.16 (≈ 0.254 µM) | 1.2 (≈ 1.9 µM) | 0.3 (≈ 0.475 µM) | 0.16 (≈ 0.254 µM) | 0.16 (≈ 0.254 µM) | 0.08 (≈ 0.127 µM) | 0.16 (≈ 0.254 µM) | 0.16 (≈ 0.254 µM) | LD50 (in vivo; iv): 250 to 500 mg/kg; LD50 (in vivo; po): > 5000 mg/kg; LD50 (in vivo; sc): 2000 to 4000 mg/kg; MIC (Proteus rettgeri): 0.16 µg/mL (≈ 0.254 µM); MIC (Klebsiella pneumoniae): 10 µg/mL (≈ 15.8 µM); MIC (Proteus vulgaris): 0.16 µg/mL (≈ 0.254 µM); MIC (Staphylococcus aureus; [17]): 2.5 µg/mL (≈ 3.96 µM); MIC (Staphylococcus aureus; [18]): 5 µg/mL (≈ 7.92 µM)
